Data as given in patent publication US8461389B2, “Psycho-pharmaceuticals” (University College Dublin, National University of Ireland, …, priority 2008, dated 2013).

Assays:
C57B16 mice [1] = test: Pre-pulse inhibition of the startle response; format: in vivo; conditions: i.p. once daily for 7 days; FIG. 5
Source text: An example of one way of testing for PPI: In the prepulse inhibition (PPI) procedure, the rodent is placed in a small chamber and exposed to a brief pulse of noise. The test is used to assess the subject's ability to “gate” or filter environmental information. In the acoustic (startle model) of sensorimotor gating, a weak acoustic stimulus (ie, the prepulse) decreases the reflexive flinching response (startle) produced by a second, more intense, stimulus (the pulse).
The main three parts of the procedure are prepulse, startle stimulus, and startle reflex. Different prepulse-to-pulse intervals, or lead intervals, are used: 30, 60, 120, 240 and 480 ms. Lead interval counts from the start of prepulse to the start of the pulse. With the interval exceeding 500 ms, prepulse facilitation, such as increased response, is most likely to follow. Burst of white noise is usually used as acoustic startle stimulus. Typical durations are 20 ms for prepulse and 40 ms for pulse. […] Startle response is measured in rodents using the so-called automated “startle chambers” or “stabilimeter chambers”, with detectors recording whole-body reaction. In humans, the movements of oculomotor muscles (“eye-blink reflex” or “eye-blink response” assessed using electromyographic recording of orbicularis oculi muscle and by oculography) could be used as a measure. […]

C57B16 mice [2] = test: Elevated X-maze; format: in vivo; conditions: 3 and 5 mg/kg i.p. once daily for 7 days; FIG. 4
Source text: The elevated X-Maze, otherwise known as the Elevated Plus Maze is a test that relies on the inherent conflict between exploration of a novel area and avoidance of its aversive features. The test may be used in male or female rats or mice or male gerbils. It is reliable in a wide range of strains and in group-housed or isolated animals. The maze consists of four arms in the form of an x or plus: two open arms and two arms of the same size, also with an open roof but enclosed by walls. The two open arms are opposite each other and converge into a central platform. The animal under investigating is observed by a video camera and its movements scored by the tracking software Ethovision by Noldus. During the experiment the animal is placed in the central platform of the maze facing an open arm and is observed for 5 minutes with the following being measured: number of entries into open arms, number of entries into closed arms, time spent in open arms, time spent in closed arms and finally the time spent in the central square (File et al., Current Protocols in Neuroscience (2004) 8.3.1-8.3.22).
The elevated X-maze has strong claims to validity as an animal model of anxiety and is of great utility in evaluating putative anxiety modulating drugs. The test is based on rodents' natural fear of heights and open spaces. […]

[3] = system: GDNF (Glial cell derived neurotrophic factor); test: GDNF levels in brain regions by ELISA after sub-chronic administration; format: in vivo, mice; conditions: sub-chronic 7 day treatment, FIG. 9D
Experimental: Neurotrophic factor concentration was determined by using an ELISA purchased from Promega Inc;
The Experimental protocol employed in the behavioural evaluation of Captodiamine is set out as follows: Three separate cohorts of C57B16 mice were employed in the behavioural evaluation of Captodiamine (see FIG. 7). Cohort 1 was used to evaluate the drug effect on prepulse inhibition, spatial learning, open-field and novel object recognition. Cohort 2 was used to evaluate drug effects on the forced swim test and the elevated X-maze. The behavioural tests were administered in sequence as per day number indicated in the bar of FIG. 7. The drug was administered by the intraperitoneal route and on the day of training the drug was administered after the behavioural analysis. […]
The Structure (FIG. 9A), receptor affinity (FIG. 9B), pharmacokinetics (FIG. 9C) and growth factor modulation (FIG. 9D) of Captodiamine are provided. […] Blood levels of Captodiamine were determined by GC mass spectroscopy. […] Values were analysed using a Student t-test and those with a p value<0.05 were accepted as significant and are indicated with an asterisk.

## CCCCSc1ccc(C(SCCN(C)C)c2ccccc2)cc1 (stereo not shown) [Captodiamine, 2-[(4-butylsulfanylphenyl)-phenyl-methyl]sulfanyl-N,N-dimethyl-ethanamin]
C57B16 mice [1]
  pre-pulse inhibition of startle: no effect
C57B16 mice [2]
  time exploring the open arms of the elevated X-maze: significantly longer periods exploring the open arms
[3]
  GDNF expression levels, hypothalamus: but not in either the hippocampus or the hypothalamus
  GDNF expression levels, prefrontal cortex: significantly decreased
